“Also recorded” adds a separate entry of the source.
Experiments:
[1] = system: HeLa cells; experiment: Cellular ROS level (CellROX Green); type: cell-based, human; settings: 4 hrs
Description: SFIGS. 5A-I. Small-molecule activators of TFEB engage different sources of Ca. (SFIG. 5A) HeLa cells were pretreated with or without N-acetyl-cysteine (NAC) for 1 hr and then treated with tert-butyl hydroperoxide (TBHP) or AD for 4 hrs. TBHP and NAC were used as positive and negative controls. A ROS-sensitive DNA dye CellROX Green was used to detect cellular ROS levels after these treatments. Endogenous TFEB localization was also shown. (SFIG. 5B) Quantification of the fluorescent intensity of CellROX Green in cells treated as in a was done by a plate reader. (SFIG. 5C) Quantification of endogenous TFEB nuclear translocation in SFIG. 5A. (SFIG. 5D) Cells were pretreated with or without 25 μM IP3R inhibitor Xestosporine C (Xesto) for 1 hr and then treated with DG, AD and IKA for indicated time. Quantification of TFEB translocation was shown in SFIG. 5E-G (graphs represent mean±s.d. **p<0.01, ***p<0.001, ****p<0.0001). (SFIG. 5H-I) RNA-interference were used to knock down inositol […] receptor type 1 (IP3R1) in GFP-TFEB cells before they were treated with DG, AD and IKA. siLONRF1 was used as a negative control. TFEB translocation percentage was quantified from images as shown in SFIG. 5I (mean±s.d. for n=3 independent experiments, ****p<0.0001). Scale bar, 20 μm.

[2] = system: mice under fed and fast conditions; experiment: Short-term starvation and chloroquine-induced acute hepatic lipid accumulation in mice; type: in vivo, mouse; settings: overnight fast; CQ intraperitoneal; DG oral co-administration
Experimental: SFIGS. […] (SFIG. 6A) The body weight (left y-axis, solid symbols) and food intake (right y-axis, open symbols) measured in normal-diet-fed mice treated with vehicle or 2.5 mg/kg DG. (SFIG. 6B) Drug release curves of AD (upper panel) and IKA (lower panel) in PBS. […] (SFIG. 6F) Cells were treated with various doses DG, AD and IKA for 4 hours, and cell viability was measured immediately or after 72 hours. Dose response curves were simulated using ImageJ. (SFIG. 6G) H&E staining of heart, spleen and kidney sections from mice treated with DG, AD, IKA and their corresponding controls. Scale bar, 100 μm. (SFIG. 6H) H&E staining of liver and heart sections as well as ORO and p62/SQSTM1 IHC staining of liver sections from mice under fed and fast conditions with orally injected DG and intraperitoneally injected CQ, individually and jointly, or their corresponding control (Saline). Scale bar, 50 μm. (SFIG. 6I) The body weight of mice after the treatment described in SFIG. 6H. (SFIGS. 6J-L) Total serum levels of triglyceride, cholesterol and glucose of mice after the treatment described in SFIG. 6G.

[3] = system: TFEB; experiment: GFP-TFEB nuclear translocation (high-content screen, dose-response, confocal imaging); type: cell-based, human; settings: for TFEB nuclear accumulation by AMPK activators: GFP-TFEB HeLa cells; for hit status in the TFEB screen overlapping with the autophagy (GFP-LC3) screen: compounds added for 4 hr, overlap with top 30 hits of autophagy screen
Experimental: GFP-TFEB HeLa cells were seeded in 384-well plates. Compounds were added for 4 hr the following day. Bafilomycin A1 (250 nM) treated cells were used as positive controls and DMSO-treated cells as negative controls. […] Images were collected using 405 nm and 488 nm laser lines with DAPI and FITC emission filters. Images were analyzed using the GE IN Cell Analyzer Workstation software. Briefly, nuclei were segmented using the Hoechst channel and the cytoplasm was segmented using the GFP channel. For each cell, the mean GFP intensity in each compartment was measured and used to calculate the nuclear to cytoplasmic (N/C) TFEB-GFP ratio. The same method as mentioned above was used to generate the top 30 compounds with highest condensed activity values and robust Z score values.
GFP-TFEB HeLa cells treated with compounds or DMSO were fixed and stained with Hoechst. Images from at least 3 different fields per sample were acquired using a 40× objective on a Zeiss confocal microscope and analyzed with ImageJ. 20-30 cells were evaluated from each image for each sample, and 3 independent experiments were performed to generate the graphed values.

[4] = system: mTORC1; experiment: TSC2 dependence of mTORC1 inhibition and TFEB activation in p53-/- and p53-/-, TSC2-/- MEFs; type: cell-based, mouse; settings: p53-/- vs p53-/-

Row | Structure (SMILES) | TFEB nuclear accumulation by AMPK activators [3] | hit status in the TFEB screen overlapping with the autophagy (GFP-LC3) screen [3] | also measured
1 | CC(C)(C)OO [TBHP, tert-Butyl hydroperoxide, reference compound] | – | – | ROS production [1]: comparable ROS production
2 | CCN(CC)CCCC(C)Nc1ccnc2cc(Cl)ccc12 (stereo not shown) [CQ, chloroquine] | – | – | fast-induced hepatic lipid accumulation [2]: exacerbated
3 | NC(=O)c1ncn([C@@H]2O[C@H](COP(=O)(O)O)[C@@H](O)[C@H]2O)c1N [AICAR, 5-aminoimidazole-4-carboxamide ribonucleotide, reference compound] | sufficient to induce TFEB nuclear accumulation | – | –
4 | C[C@@H]1C[C@@H]([C@H](O)CC2CC(=O)NC(=O)C2)C(=O)[C@@H](C)C1 [cycloheximide, reference compound] | – | top 18 hits | –
5 | CN(C)C(=N)N=C(N)N [metformin, reference compound] | sufficient to induce TFEB nuclear accumulation | – | –
6 | C[C@@H]1O[C@@H](O[C@@H]2C=C3CC[C@@H]4[C@H](CC[C@]5(C)[C@@H](c6ccc(=O)oc6)CC[C@]45O)[C@@]3(C)CC2)[C@H](O)[C@H](O)[C@H]1O [proscillaridin A, reference compound] | – | top 18 hits; also recorded: top scoring hits | dependence of mTORC1 inhibition / TFEB activation on TSC2 [4]: independent

Reference: US20200333357A1, “NOVEL TFEB PATHWAY AGONISTS FOR METABOLIC DISEASES AND AGEING” (The Board of Regents of the University of Texas System, priority 2017, published 2020)
